What all share (assay): biochemical
Type in all cases: binding

Assay [1] has as its target HLA-DR DRB5*0101 (DR51) (Homo sapiens, UniProt P01903+Q30154).
The target in assay [2] is HLA-DR DRB1*1101 (DR11) (Homo sapiens, UniProt P01903+P01911, A100R/A169T/A87E/I96F/K41T/L162R/M171V/P40S/Q125H/Q178H/Q39Y/Q99D/R42S/S66Y/T262R/V115G/W38E).
For assay [3], the target named is HLA-DR DRB1*1501 (DR15) (Homo sapiens, UniProt P01903+P01911).
The target of assay [4] is HLA-DR DRB1*1302 (DR13) (Homo sapiens, UniProt P01903+P01911, A100E/A169T/K41T/L162R/M171V/P40S/Q125H/Q178H/Q39Y/Q99D/R42S/S66N/T262R/V115G/W38E/Y61H).
In assay [5] the target is HLA-DR DRB4*0101 (DR53) (Homo sapiens, UniProt P01903+P13762, G164S).
Assay [6] addresses HLA-DR DRB1*0401 (DR4) (Homo sapiens, UniProt P01903+P01911, A100K/A169T/F76Y/I96L/K127E/L162R/M171V/N62H/P40V/Q125Y/R42H/S133A/S149N/S66Y/V115G/V209L/W38E).
Assay [7] concerns the target HLA-DR DRB1*0701 (DR7) (Homo sapiens, UniProt P01903+P01911, A100R/A102G/A103Q/D57E/D86V/E43K/F76Y/K127E/L162R/M171V/P40G/Q125H/Q99D/R33Q/R42Y/R54Q/S133A/S66F/T210M/V115G/Y107V/Y59L/Y89S).
Assay [8] concerns the target HLA-DR DRB1*0101 (DR1) (Homo sapiens, UniProt P01903+P01911, A100R/D57E/F55L/F60I/F76Y/I96L/L162R/M171V/P40L/Q125E/R42F/V115G/Y59C).
Assay [9] deals with HLA-DR DRB1*0901 (DR9) (Homo sapiens, UniProt P01903+P01911, A100R/A103E/D57H/D86V/F55Y/F60I/F76Y/I96F/K127E/L162R/M171V/P40D/Q125H/Q99R/R33Q/R42F/S133A/S66N/T210M/V115G/W38K/Y107V/Y59G/Y89S). Particulars: read-out: DRB1 *0901.
Assay [10] addresses HLA-DR DRB1*0301 (DR3) (Homo sapiens, UniProt P01903+P01911, A100K/A102G/A103R/A169T/F55Y/I96L/K41T/L162R/M171V/P40S/Q125H/Q178H/Q39Y/R42S/S66N/T106N/T262R/W38E/Y61H).

Where two headings read alike, the source gives them in different places. No end group written: not given here.

Chain of HLA-DR DRB1*1302 (DR13) (P01903 26-254 limits assumed, other chains not shown): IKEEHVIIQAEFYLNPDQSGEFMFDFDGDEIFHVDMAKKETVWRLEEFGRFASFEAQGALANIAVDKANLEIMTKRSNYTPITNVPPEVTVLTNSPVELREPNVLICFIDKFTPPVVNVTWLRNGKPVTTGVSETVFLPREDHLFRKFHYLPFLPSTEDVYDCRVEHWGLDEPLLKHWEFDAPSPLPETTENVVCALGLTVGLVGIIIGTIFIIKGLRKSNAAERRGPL
Chain of HLA-DR DRB1*0301 (DR3) (P01903 26-254 limits assumed, other chains not shown): as above
Chain of HLA-DR DRB1*1101 (DR11) (P01903 26-254 limits assumed, other chains not shown): as above

For the substance EFAFKDLFVVYRDSI, the IC50 came out at 6 µM in assay [1] (read-out: DRB5 *0101), 9.5 µM in assay [2] (read-out: DRB1 *1101), 5.36 µM in assay [3] (read-out: DRBI *1501) and 10 µM in assay [4] (read-out: DRBI *1302).
Turning to KATLQDIVLHLEPQN, the IC50 in [1] (DRB5 *0101) was greater than 9.93 µM; in assay [2] (DRB1 *1101) it was 25.9 µM; in assay [5] (DRB4 *0101) it was 159 nM; in assay [6] (DRB1 *0401), 1990 nM; in assay [7] (DRB1 *0701) it was 9090 nM; in assay [3] (DRBI *1501), 6.97 µM. Besides, the IC50 in [4] (DRBI *1302) stood at 0.603 µM; in [8] (DRB1 *0101) it was 1200 nM.
Regarding RTVYRDNNPYGVCIM, the IC50 in assay [6] (read-out: DRB1 *0401) was determined as 20 nM; in assay [9], 24.1 µM; in assay [8] (read-out: DRB1 *0101), 524 nM.
Ac-NPTKHKWEAAHVAEQLAA: the IC50 in assay [2] (DRB1 *1101) was greater than 33.3 µM; in assay [3] (DRBI *1501), 200 µM; in [4] (DRBI *1302), greater than 10 µM.
Consider ALLKNYGLLYCFRIW, for which the IC50 in assay [2] (read-out: DRB1 *1101) is greater than 15.4 µM; in assay [3] (read-out: DRBI *1501) it was 0.017 µM; in assay [4] (read-out: DRBI *1302) it was 0.01 µM.
For the substance SEVYDFAFADLTVVY, the IC50 in assay [1] (DRB5 *0101) was 11.8 µM; in [2] (DRB1 *1101) it was greater than 18 µM; in assay [6] (DRB1 *0401) it was 260 nM; in assay [7] (DRB1 *0701), 1850 nM; in assay [3] (DRBI *1501), 0.955 µM; in assay [10] it was 3 µM. For the same substance, the IC50 is greater than 13.1 µM in [4] (DRBI *1302) and 31 nM in [8] (DRB1 *0101).
For IQQLLMGTVNIVCPT, the IC50 in [1] (read-out: DRB5 *0101) is greater than 55.1 µM; in [2] (read-out: DRB1 *1101) it was 11.1 µM; in assay [3] (read-out: DRBI *1501), 2.01 µM; in [4] (read-out: DRBI *1302), 0.009 µM.
In the case of LSHFLKEKGGLEGLI, the IC50 in assay [1] (read-out: DRB5 *0101) was greater than 20.5 µM; in assay [2] (read-out: DRB1 *1101) it was 9.46 µM; in assay [5] (read-out: DRB4 *0101) it was 18700 nM; in assay [3] (read-out: DRBI *1501), greater than 39.7 µM; in assay [4] (read-out: DRBI *1302), greater than 12 µM.
YDFVFADLRIVYRDG: the IC50 in [2] (read-out: DRB1 *1101) is 6.54 µM; in [3] (read-out: DRBI *1501), 25.7 µM; in assay [4] (read-out: DRBI *1302), 8.17 µM.
Regarding DRTLMSAMTNLAALE, the IC50 in assay [6] (read-out: DRB1 *0401) came out at 13 nM; in assay [7] (read-out: DRB1 *0701), 383 nM; in assay [10] (read-out: DRB1 *0301), 64.3 µM; in assay [8] (read-out: DRB1 *0101), 97 nM.
On to QLQQFQKEDAAVTLY, for which the IC50 came out at 500 nM in [7] (read-out: DRB1 *0701), 55.4 µM in assay [9] and 85 nM in assay [8] (read-out: DRB1 *0101).
Consider LRTIQQLLMGTVNIV, for which the IC50 was determined as 32.1 µM in assay [1] (DRB5 *0101); 15 nM in [5] (DRB4 *0101); 108 nM in assay [6] (DRB1 *0401); 513 nM in [7] (DRB1 *0701); 0.265 µM in assay [3] (DRBI *1501); 23.2 µM in assay [10]. Besides, the values for the IC50 in [4] (DRBI *1302) and in assay [8] (DRB1 *0101) were 0.0064 µM and 13 nM, respectively.
For LGFFPDHQLDPAFRANT, the IC50 in assay [10] (read-out: DRB1 *0301) is 12 µM.
TYSVSFDSLFSAVKN: the IC50 was 0.061 µM in assay [1] (read-out: DRB5 *0101), 5.98 µM in assay [2] (read-out: DRB1 *1101), 3.22 µM in assay [3] (read-out: DRBI *1501) and 5.89 µM in assay [4] (read-out: DRBI *1302).
For YSYFPSIR, the IC50 in assay [1] (DRB5 *0101) is greater than 200 µM; in [2] (DRB1 *1101) it was 20 µM; in assay [7] (DRB1 *0701), 7220 nM; in assay [10] it was greater than 900 µM; in assay [8] (DRB1 *0101), no less than 50000 nM.
With Ac-ASQKRPSQRHGSKYLATAST, in assay [10], the IC50 is greater than 900 µM.
Take LGFLQRSSNTQTQK: the IC50 turned out to be 18 nM in assay [6] (read-out: DRB1 *0401), 420 nM in assay [7] (read-out: DRB1 *0701) and 1.34 µM in assay [9].
As for AAAKAAAAAAYAA, the IC50 in [6] (DRB1 *0401) is 229 nM; in assay [10] it was greater than 900 µM.
In assay [10], YAGIRRDGLLLRLVD had an IC50 of 0.0096 µM.
For the substance VGGVYLLPRRGPRLGV, in assay [10] (read-out: DRB1 *0301), the IC50 amounted to 237 µM.
